From patent publication EP4603105A1, “PHARMACEUTICAL COMPOSITION CONTAINING CYCLIC COMPOUND HAVING SELECTIVE KRAS INHIBITORY EFFECT AGAINST HRAS AND NRAS” (CHUGAI SEIYAKU KABUSHIKI KAISHA, priority 2022, dated 2024)
pIC50: −log10 of the molar value. *1 amine or outer side, *2 acyl side, *3 side chain or, on linkers, in order; H or OH if unused. Where a SMILES comes first, the peptide text is derived from it. Bridges are numbered along the chain shown (N, C = ends). [ ]: non-standard residue; d: D form. The star is where a group is joined. hPhe(3,5-F2-4-CF3) = N[C@@H](CCc1cc(F)c(C(F)(F)F)c(F)c1)C(=O)O; hPhe(3-Cl-4-CF3) = N[C@@H](CCc1ccc(C(F)(F)F)c(Cl)c1)C(=O)O; X42 = Cc1ccc(C[C@@H](C(=O)[*:2])N(CCC(F)(F)F)[*:1])cc1; NPrPhe(4-CF3) = CCCN[C@@H](Cc1ccc(C(F)(F)F)cc1)C(=O)O; NEtPhe(4-Me) = CCN[C@@H](Cc1ccc(C)cc1)C(=O)O; NMeGly(cPent) = CN[C@H](C(=O)O)C1CCCC1; Hyp = O=C(O)[C@@H]1C[C@@H](O)CN1; NMeD = CN[C@@H](CC(=O)O)C(=O)O; Ac4c(3-oxa) = NC1(C(=O)O)COC1; NMeL = CN[C@@H](CC(C)C)C(=O)O; Ac6c = NC1(C(=O)O)CCCCC1; Morpholide = C1CN(*)CCO1; NMeA = CN[C@@H](C)C(=O)O; Ac5c = NC1(C(=O)O)CCCC1; Aze = O=C(O)[C@@H]1CCN1; Ac4c = NC1(C(=O)O)CCC1; NEtG = CCNCC(=O)O; Sar = CNCC(=O)O

Columns and labels:
[1] = system: human lung cancer strain NCI-H441; assay type: cell-based
How it was run: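 Signal came from […] measured per well once the reagent was added. Beforehand, cells were cultured at 37°C and 5% carbon dioxide on a compound series serially diluted in dimethyl sulfoxide.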

HRAS wild-type protein = HRAS wild-type protein (Homo sapiens, UniProt P01112); assay: Binding to HRAS by surface plasmon resonance (SPR), KD and KD ratio to KRAS
How it was run: (§1)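 Each cycle, GDP-bound biotin-Avi RAS was captured (~100–300 RU), compound concentrations were injected low to high for 75 s each at 100 µL/min, then the chip was regenerated. Buffer: HBS pH 7.4, 10 mM MgCl2, 10 µM GDP, 1 mM DTT, 4% DMSO; 30°C. KD from a 1:1 binding model.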

[2] = target: GDP-bound NRAS wild-type protein (Homo sapiens, UniProt P01111); assay: Binding to NRAS by surface plasmon resonance (SPR), KD and KD ratio to KRAS
How it was run: as §1

[3] = ratio of KD for HRAS wild-type protein to KD for KRAS
[4] = ratio of KD for GDP-bound NRAS wild-type protein to KD for KRAS
[5] = ratio of the KD value with respect to HRAS wild-type protein to the KD value with respect to KRAS
[6] = ratio of the KD value with respect to GDP-bound NRAS wild-type protein to the KD value with respect to KRAS

Chain of HRAS wild-type protein (P01112 whole entry): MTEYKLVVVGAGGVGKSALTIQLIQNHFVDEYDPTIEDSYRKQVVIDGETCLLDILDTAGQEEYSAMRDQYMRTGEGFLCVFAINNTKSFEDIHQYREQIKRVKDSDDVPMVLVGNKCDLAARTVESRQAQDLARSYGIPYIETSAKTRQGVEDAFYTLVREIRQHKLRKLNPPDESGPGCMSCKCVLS
Chain of GDP-bound NRAS wild-type protein (P01111 whole entry): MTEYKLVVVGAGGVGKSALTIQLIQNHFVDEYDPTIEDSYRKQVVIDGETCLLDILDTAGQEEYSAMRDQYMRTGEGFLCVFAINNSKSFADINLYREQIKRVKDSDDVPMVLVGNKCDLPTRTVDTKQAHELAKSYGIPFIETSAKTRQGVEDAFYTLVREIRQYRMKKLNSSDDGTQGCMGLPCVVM

Compound	pIC50 [1]	HRAS /KRAS (HRAS wild-type protein; [3])	NRAS /KRAS [2, 4]	HRAS /KRAS (HRAS wild-type protein; [5])	NRAS /KRAS [2, 6]	HRAS /KRAS (HRAS wild-type protein; ratio of KD value for HRAS wild-type protein to KD value for KRAS (SPR))	NRAS /KRAS ([2]; ratio of KD value for GDP-bound NRAS wild-type protein to KD value for KRAS (SPR))
CC[C@H](C)[C@@H]1NC(=O)[C@H](CC(C)C)N(C)C(=O)C[C@@H](C(=O)N2CCOCC2)N(C)C(=O)[C@H](C2CCCC2)N(C)C(=O)C2(CCCC2)NC(=O)[C@@H]2CCCN2C(=O)[C@H](CCc2ccc(C(F)(F)F)c(Cl)c2)NC(=O)CN(C)C(=O)[C@H](Cc2ccc(C)cc2)N(CCC(F)(F)F)C(=O)CN(C)C(=O)CN(C)C1=O [PP0103] ([NMeL]I[Sar][Sar][X42][Sar][hPhe(3-Cl-4-CF3)]P[Ac5c][NMeGly(cPent)][NMeD]-Morpholide; lactam N-11)	8.09	C (A compound having a KD ratio of 0.1 or more and less than 3 is denoted as C)	B (a compound having 3 or more and less than 10 is denoted as B)				
CC[C@H](C)[C@@H]1NC(=O)[C@H](C)N(C)C(=O)C[C@@H](C(=O)N(C)C)N(C)C(=O)[C@H](C2CCCC2)N(C)C(=O)C2(CCC2)NC(=O)[C@@H]2CCCN2C(=O)[C@H](CCc2cc(F)c(C(F)(F)F)c(F)c2)NC(=O)CN(C)C(=O)[C@H](Cc2ccc(C(F)(F)F)cc2)N2CCCCC[C@@H](C2=O)N(C)C(=O)CN(C)C1=O [PP0470]	7.28			B (a compound having 3 or more and less than 10 is denoted as B)	B (a compound having 3 or more and less than 10 is denoted as B)		
CCCN1C(=O)CN(C)C(=O)[C@@H]2CCN2C(=O)[C@H]([C@@H](C)CC)NC(=O)[C@H](CC(C)C)N(C)C(=O)C[C@@H](C(=O)N2CCOCC2)N(C)C(=O)[C@H](C2CCCC2)N(C)C(=O)C2(COC2)NC(=O)[C@@H]2CCCN2C(=O)[C@H](CCc2cc(F)c(C(F)(F)F)c(F)c2)NC(=O)CN(C)C(=O)[C@@H]1Cc1ccc(C(F)(F)F)cc1 [PP0782] ([NMeL]I[Aze][Sar][NPrPhe(4-CF3)][Sar][hPhe(3,5-F2-4-CF3)]P[Ac4c(3-oxa)][NMeGly(cPent)][NMeD]-Morpholide; lactam N-11)	6.37	B (a compound having 3 or more and less than 10 is denoted as B)	B (a compound having 3 or more and less than 10 is denoted as B)				
CCO[C@@H]1C[C@H]2C(=O)NC3(CC(C)(C)C3)C(=O)N(C)[C@@H](C(CC)CC)C(=O)N(C)[C@H](C(=O)N(C)C)CC(=O)N(C)[C@H]3CCCCC/C=C/c4ccc(cc4)C[C@@H](C(=O)N(C)CC(=O)N[C@@H](CCc4cc(F)c(C(F)(F)F)c(F)c4)C(=O)N2C1)N1CC/C=C\C[C@@H](C1=O)N(C)C(=O)CN(C)C(=O)[C@H]([C@@H](C)CC)NC3=O [PP3048]	7.95	A (a compound having 10 or more and less than 20 is denoted as A)	A (a compound having 10 or more and less than 20 is denoted as A)				
CC[C@H](C)[C@@H]1NC(=O)[C@H](CC(C)C)N(C)C(=O)C[C@@H](C(=O)N(C)C)N(C)C(=O)[C@H](C2CCCC2)N(C)C(=O)C2(CCCC2)NC(=O)[C@@H]2CCCN2C(=O)[C@H](CCc2cc(F)c(C(F)(F)F)c(F)c2)NC(=O)CN(C)C(=O)[C@H](Cc2ccc(C(F)(F)F)cc2)N2CCCCC[C@@H](C2=O)N(C)C(=O)CN(CC)C1=O [PP0514]	6.51			B (a compound having 3 or more and less than 10 is denoted as B)	B (a compound having 3 or more and less than 10 is denoted as B)		
CC[C@H](C)[C@@H]1NC(=O)[C@H](C)N(C)C(=O)C[C@@H](C(=O)N(C)C)N(C)C(=O)[C@H](C2CCCC2)N(C)C(=O)C2(CCCC2)NC(=O)[C@@H]2CC(F)(F)CN2C(=O)[C@H](CCc2cc(F)c(C(F)(F)F)c(F)c2)NC(=O)CN(C)C(=O)[C@H](Cc2ccc(C(F)(F)F)cc2)N2CCCCC[C@@H](C2=O)N(C)C(=O)CN(C)C1=O [PP0472]	7.61			B (a compound having 3 or more and less than 10 is denoted as B)	B (a compound having 3 or more and less than 10 is denoted as B)		
CCC[C@H]1C(=O)N[C@@H](C2CCCC2)C(=O)N(C)CC(=O)N(C)[C@H]2C/C=C\CCN(C2=O)[C@@H](Cc2ccc(C)cc2)C(=O)N(C)CC(=O)N[C@@H](CCc2ccc(C(F)(F)F)c(Cl)c2)C(=O)N2C[C@H](OCC)C[C@H]2C(=O)NC2(CC(C)(C)C2)C(=O)N(C)[C@@H](CC(C)(C)C)C(=O)N(C)[C@H](C(=O)N(C)C)CC(=O)N1C [PP2196]	8.18			B (a compound having 3 or more and less than 10 is denoted as B)	A (a compound having 10 or more and less than 20 is denoted as A)		
CCCN1C(=O)CN(C)C(=O)CN(C)C(=O)[C@H]([C@@H](C)CC)NC(=O)[C@H](CC(C)C)N(C)C(=O)C[C@@H](C(=O)N2CCOCC2)N(C)C(=O)[C@H](C2CCCC2)N(C)C(=O)C2(CCCCC2)NC(=O)[C@@H]2CCCN2C(=O)[C@H](CCc2ccc(C(F)(F)F)c(Cl)c2)NC(=O)CN(C)C(=O)[C@@H]1Cc1ccc(C(F)(F)F)cc1 [PP0231] ([NMeL]I[Sar][Sar][NPrPhe(4-CF3)][Sar][hPhe(3-Cl-4-CF3)]P[Ac6c][NMeGly(cPent)][NMeD]-Morpholide; lactam N-11)	7.88	C (A compound having a KD ratio of 0.1 or more and less than 3 is denoted as C)	B (a compound having 3 or more and less than 10 is denoted as B)				
CCO[C@@H]1C[C@H]2C(=O)NC3(CC(C)(C)C3)C(=O)N(C)[C@@H](C3CCCC3)C(=O)N3CCC[C@@H]3CC(=O)N(C)[C@@H](CC)C(=O)N[C@@H]([C@@H](C)CC)C(=O)N(C)CC(=O)N(C)[C@H]3C/C=C\CCN(C3=O)[C@@H](CC3CCCCC3)C(=O)N(C)CC(=O)N[C@@H](CCc3cc(F)c(C(F)(F)F)c(F)c3)C(=O)N2C1 [PP1620]	6.77					B (a compound having 3 or more and less than 10 is denoted as B)	B (a compound having 3 or more and less than 10 is denoted as B)
CCCN1C(=O)[C@@H]2CCN2C(=O)[C@H](C)N(C)C(=O)[C@H]([C@@H](C)CC)NC(=O)[C@H](CC(C)C)N(C)C(=O)C[C@@H](C(=O)N2CCOCC2)N(C)C(=O)[C@H](C2CCCC2)N(C)C(=O)C2(CCCC2)NC(=O)[C@@H]2C[C@@H](OC)CN2C(=O)[C@H](CCc2ccc(C(F)(F)F)c(Cl)c2)NC(=O)CN(C)C(=O)[C@@H]1Cc1ccc(C(F)(F)F)cc1 [PP0283] ([NMeL]I[NMeA][Aze][NPrPhe(4-CF3)][Sar][hPhe(3-Cl-4-CF3)][Hyp](Me)[Ac5c][NMeGly(cPent)][NMeD]-Morpholide; lactam N-11)	8.72	C (A compound having a KD ratio of 0.1 or more and less than 3 is denoted as C)	C (A compound having a KD ratio of 0.1 or more and less than 3 is denoted as C)				
CC[C@H](C)[C@@H]1NC(=O)[C@H](C2CCC2)N(C)C(=O)C[C@@H](C(=O)N(C)CC)N(C)C(=O)[C@H](C2CCCC2)N(C)C(=O)C2(CC(C)(C)C2)NC(=O)[C@@H]2C[C@H](C)CN2C(=O)[C@H](CCc2cc(F)c(C(F)(F)F)c(F)c2)NC(=O)CN(C)C(=O)[C@H](Cc2ccc(C(F)(F)F)cc2)N2CC/C=C\C[C@@H](C2=O)N(C)C(=O)CN(C)C1=O [PP1984]	7.29			A (a compound having 10 or more and less than 20 is denoted as A)	A (a compound having 10 or more and less than 20 is denoted as A)		
CC[C@H](C)[C@@H]1NC(=O)[C@H](CC(C)C)N(C)C(=O)C[C@@H](C(=O)N2CCOCC2)N(C)C(=O)[C@H](C2CCCC2)N(C)C(=O)C2(CCCC2)NC(=O)[C@@H]2CCCN2C(=O)[C@H](CCc2ccc(C(F)(F)F)c(Cl)c2)NC(=O)CN(CC)C(=O)[C@H](Cc2ccc(C)cc2)N(CC)C(=O)CN(C)C(=O)CN(C)C1=O [PP0028] ([NMeL]I[Sar][Sar][NEtPhe(4-Me)][NEtG][hPhe(3-Cl-4-CF3)]P[Ac5c][NMeGly(cPent)][NMeD]-Morpholide; lactam N-11)	7.26	C (A compound having a KD ratio of 0.1 or more and less than 3 is denoted as C)	C (A compound having a KD ratio of 0.1 or more and less than 3 is denoted as C)				
CCO[C@@H]1C[C@H]2C(=O)NC3(CCC3)C(=O)N(C)[C@@H](C3CCCC3)C(=O)N(CC)[C@H](C(=O)N3CCOCC3)CC(=O)N(C)[C@@H](Cc3ccccc3)C(=O)N[C@@H]([C@@H](C)CC)C(=O)N(C)CC(=O)N(C)[C@H]3CCCCCN(C3=O)[C@@H](Cc3ccc(C(F)(F)F)cc3)C(=O)N(C)CC(=O)N[C@@H](CCc3cc(F)c(C(F)(F)F)c(F)c3)C(=O)N2C1 [PP0950]	6.02	B (a compound having 3 or more and less than 10 is denoted as B)	A (a compound having 10 or more and less than 20 is denoted as A)				
CCCN1C(=O)[C@@H]2CCN2C(=O)[C@H](C)N(C)C(=O)[C@H]([C@@H](C)CC)NC(=O)[C@H](CC(C)C)N(C)C(=O)C[C@@H](C(=O)N2CCOCC2)NC(=O)[C@H](C2CCCC2)N(C)C(=O)C2(CCC2)NC(=O)[C@@H]2CCCN2C(=O)[C@H](CCc2ccc(C(F)(F)F)c(Cl)c2)NC(=O)CN(C)C(=O)[C@@H]1Cc1ccc(C(F)(F)F)cc1 [PP0344] ([NMeL]I[NMeA][Aze][NPrPhe(4-CF3)][Sar][hPhe(3-Cl-4-CF3)]P[Ac4c][NMeGly(cPent)]D-Morpholide; lactam N-11)	7.08	B (a compound having 3 or more and less than 10 is denoted as B)	C (A compound having a KD ratio of 0.1 or more and less than 3 is denoted as C)				
